Results taken from PubChem BioAssay (NCI).
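Dose response: 5 concentrations. Exposure: 48 h. Format: 96-well plates. Endpoint: linear interpolation; highest concentration if not reached. TGI: total growth inhibition.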

Tests used:
Test in all cases: NCI anticancer screen, dose series, 48 h
[1] = system: MALME-3M melanoma
[2] = system: 786-0 renal
[3] = system: RPMI-8226 leukemia
[4] = system: PC-3 prostate
[5] = system: NCI-H522 lung
[6] = system: NCI/ADR-RES ovarian
[7] = system: MDA-MB-435
[8] = system: KM12 colon
[9] = system: UO-31 renal
[10] = system: HOP-92 NSCLC
[11] = system: EKVX NSCLC
[12] = system: UACC-62 melanoma
[13] = system: SK-MEL-28 melanoma
[14] = system: SK-MEL-2 melanoma
[15] = system: HCT-15 colon
[16] = system: MDA-MB-231 breast
[17] = system: SNB-19 CNS
[18] = system: IGROV1 ovarian
[19] = system: MCF7 breast
[20] = system: TK-10 renal

Row | SMILES | TGI [1] | TGI [2] | TGI [3] | TGI [4] | TGI [5] | TGI [6] | TGI [7] | TGI [8] | TGI [9] | TGI [10] | TGI [11] | TGI [12] | TGI [13] | TGI [14] | TGI [15] | TGI [16] | TGI [17] | TGI [18] | TGI [19] | TGI [20]
1 | N#Cc1cc([N+](=O)[O-])ccc1NC(=O)/C(=N\NC(=O)c1ccncc1)C(c1cnc2ccc([N+](=O)[O-])cc2n1)[N+](=O)[O-] (stereo not given) | 2.61 µM | 6.16 µM | 41.7 µM | 21.4 µM | 3.46 µM | 37 µM | 2.59 µM | 7.53 µM | 7.6 µM | 22.6 µM | 25.1 µM | 2.96 µM | 4.81 µM | 3.73 µM | 5.22 µM | 5.36 µM | 8.16 µM | 14.2 µM | 3.37 µM | 28.3 µM
2 | CCOC(=O)C1(N)CCc2[nH][nH]c(=O)c2C1 (stereo not given) | > 100 µM | > 100 µM | > 100 µM | > 100 µM | > 100 µM | > 100 µM | > 100 µM | > 100 µM | > 100 µM | > 100 µM | > 100 µM | > 100 µM | > 100 µM | > 100 µM | > 100 µM | > 100 µM | > 100 µM | > 100 µM | > 100 µM | > 100 µM
3 | CCOC(=O)C1C(C)C2(C#N)C(=N)OC1(C)C2(C#N)C#N (stereo not given) | > 100 µM | > 100 µM | 43.8 µM | > 100 µM | > 100 µM | > 100 µM | > 100 µM | > 100 µM | > 100 µM | 97.1 µM | > 100 µM | > 100 µM | > 100 µM | > 100 µM | > 100 µM | > 100 µM | > 100 µM | > 100 µM | > 100 µM | > 100 µM
4 | COC(=O)C1=C(OC(=O)/C(=C/c2ccccc2)c2ccc(Cl)cc2)C(C(=O)OC)[C@@]2(O)[C@@H](C(=O)OC)[C@H](C)C[C@@H]1[C@@H]2C(=O)OC (stereo not given in full) | > 100 µM | > 100 µM | > 100 µM | > 100 µM | > 100 µM | > 100 µM | > 100 µM | > 100 µM | > 100 µM | > 100 µM | > 100 µM | > 100 µM | > 100 µM | > 100 µM | > 100 µM | > 100 µM | > 100 µM | > 100 µM | > 100 µM | > 100 µM
5 | COC(=O)C(C)(C)[C@@H]1OC(=O)N(S(=O)(=O)c2c(C)cc(C)cc2C)[C@H]1C(C)C | > 100 µM | > 100 µM | > 100 µM | > 100 µM | > 100 µM | > 100 µM | > 100 µM | > 100 µM | > 100 µM | 98.2 µM | > 100 µM | > 100 µM | > 100 µM | > 100 µM | > 100 µM | > 100 µM | > 100 µM | > 100 µM | > 100 µM | > 100 µM
